# Patent US20160038439A1, “Use of 7-a-[9-(4,4,5,5,5-pentafluoropentylsulfinyl)nonyl]-estra-1,3,5(10)- triene-3,17B-diol and derivatives thereof” (XI'ANLIBANG PHARMACEUTICAL TECHNOLOGY CO., LTD., priority 2013, published 2016)
# Marks after values point to notes of the source that are not given here.
# Columns and labels:
# [1] = system: chicken type II collagen-induced arthritis model in SD rats; experiment: Pathological examination score of hindfoot ankle joint of rats with arthritis; format: in vivo; settings: high dose group (1.40-2.16 mg/kg per compound), every other day for 14 days, n=4
# Experimental: (§1) After inflamed model was successfully established in SD rats, the SD rats were randomly divided into model control group (12 rats), low, medium dose group (8 rats for each), and high dose group (12 rats) of test drug depending on body weight. Rats in the model control group were administered a blank fat emulsion injection (0.5 mL) by tail vein injection every other day for 7 days; rats in the low and medium dose group of test drug were administered a fat emulsion injection of a compound of Formula A (specifically including Compounds I-VI described hereafter) by tail vein injection every other day for 7 days; rats in the high dose group of test drug were administered a fat emulsion injection of a compound of Formula A by tail vein injection every other day for 14 days. 12 same models in the normal control group were also administered a blank fat emulsion injection. Indexes such as hindfoot joint score, hindfoot joint thickness measurement, TNF-α level in serum and hindfoot joint tissues, hindfoot joint pathological section and the like were used to evaluate efficacy of the drug.
# (§2) Chicken type II collagen was dissolved in 0.1 mol/L acetic acid at 4° C. while stirring so as to be thoroughly dissolved at a concentration of 2 mg/mL The resulting solution was put into a refrigerator at 4° C. overnight. Liquid paraffin and lanolin were mixed at a ratio of 2:1 (volume ratio), and the mixture was autoclaved to prepare an incomplete Freund's adjuvant (IFA). Bacillus Calmette Guerin (BCG) vaccine (60 mg) was inactivated at 80° C. for 1 hour and transferred to a mortar, into which was dropwise added IFA. After being uniformly grinded, the resulting mixture was pushed and sucked repeatedly by double-syringe to prepare a complete Freund's adjuvant (CFA), with the final concentration of BCG vaccine being 2 mg/mL. An equal amount of chicken type II collagen acid solution was mixed with CFA into a stable emulsion (containing 1 mg chicken type II collagen per milliliter).
# 12 female SD rats were randomly selected from 192 female SD rats as normal control group. The remaining 180 rats was disinfected with iodine tincture. After being deiodinated with 75% ethanol, each of the rat was administered 150 μL collagen emulsion by intradermal injection at the base of the tail, and was administered 100 μL collagen emulsion by intradermal injection at the vola pedis of right hindfoot. […]
# Rats in each group were scored for the hindfoot joint and measured for the thickness of ankle joint before being inflamed. […] Rats were scored for joint after being inflamed for 3 days, and were measured for the thickness of ankle joint before administration (on the 19th day since being inflamed), on the 3rd day and 8th day after administration (on the 20th day since being inflamed). […]
# [2] = system: chicken type II collagen-induced arthritis model in SD rats; experiment: Thickness of right hindfoot ankle joint by microcalliper, collagen-induced arthritis rats; format: in vivo
# Experimental: as §1, §2
# (§3) 12 female SD rats were randomly selected from 192 female SD rats as normal control group. The remaining 180 rats was disinfected with iodine tincture. After being deiodinated with 75% ethanol, each of the rat was administered 150 μL collagen emulsion by intradermal injection at the base of the tail, and was administered 100 μL collagen emulsion by intradermal injection at the vola pedis of right hindfoot. Thus, totally 250 μL for each rat was administered. 7 days later, an equal amount of collagen emulsion was intraperitoneal injected as a secondary immune.
# (§4) Animal grouping and administration: inflamed rats were divided into model control group, low, medium and high dose groups of test drug based on body weight.
# (§5) Rats in each group were scored for the hindfoot joint and measured for the thickness of ankle joint before being inflamed. Normal rats were taken blood from orbital venous plexus. The serum of the blood was separated out and cryopreserved at −20° C. to detect cytokines. Rats were scored for joint after being inflamed for 3 days, and were measured for the thickness of ankle joint before administration (on the 19th day since being inflamed), on the 3rd day and 8th day after administration (on the […] since being inflamed). Rats in each group were taken blood from orbital venous plexus when inflammation was severe (on the 23rd day after being inflamed). The serum of the blood was separated out and cryopreserved at −20° C. 8 rats for each group were sacrificed on the 28th day after being inflamed and were taken blood from intraperitoneal vein. The serum of the blood was separated out and was subjected to serological detection (TNF-α). The rest of rats were sacrificed on the 35th day after being inflamed, and histology index detection was carried out
# [3] = system: chicken type II collagen-induced arthritis model in SD rats; experiment: Hindfoot joint score in chicken type II collagen-induced arthritis model in SD rats; format: in vivo; parameters: scale not given here; settings: tail vein, every other day
# Experimental: as §1, §2, §3, §4, §5
# TNF-α [4] = experiment: TNF-α level in serum of rats with arthritis (ELISA); format: in vivo, SD rats
# Experimental: as §1
# (§6) Compound I used in the present invention was purchased from Xi′ an Libang Pharmaceutical Co., Ltd.; Compounds II-IV were synthesized by the following method. SD rats used in the present invention were purchased from Super-B&K Laboratory Animal Corp. Ltd.; chicken type II collagen was purchased from Sigma, Lot No. 87H5227; rat tumor necrosis factor-α [TNF-α] enzyme-linked immunoassay kit (ELISA) was purchased from Shanghai Biovol Biotech Co., Ltd., Lot No. BV-E12102201.
# as §2, §3, §4
# as §5, with “8 rats for each group were sacrificed on the 28th day after being inflamed and were taken blood from intraperitoneal vein. The serum of the blood was separated out and was subjected to serological detection (TNF-α). The rest of rats were sacrificed on the 35th day after being inflamed, and histology index detection was carried out” left out
# TNF-α [5] = experiment: TNF-α level in hindfoot ankle joint tissue of rats with arthritis; format: in vivo, SD rats
# Experimental: as §1, §6, §2, §3, §4
# as §5, with “8 rats for each group were sacrificed on the 28th day after being inflamed and were taken blood from intraperitoneal vein. The serum of the blood was separated out and was subjected to serological detection (TNF-α). The rest of rats were sacrificed on the 35th day after being inflamed, and histology index detection was carried out” left out
# [6] = high dose group, before administration (baseline)
# [7] = high dose group, the 3rd day after administration
# [8] = high dose group, the 8th day after administration
# [9] = low dose group, before administration (baseline)
# [10] = low dose group, the 3rd day after administration
# [11] = low dose group, the 8th day after administration
# [12] = medium dose group, before administration (baseline)
# [13] = medium dose group, the 3rd day after administration
# [14] = medium dose group, the 8th day after administration
substance,measurement,setting,value
"7-α-[9-(4,4,5,5,5-pentafluoropentylsulfinyl)nonyl]-estra-1,3,5(10)-triene-3-hydroxyl-17-(undec-2-enoyl) [Compound V]",Joint lesion score (mean ± SD),[1],3.75 ± 2.06
same,Thickness of ankle joint (mean ± SD),[2]; [6],6.28 ± 0.44 mm
same,Thickness of ankle joint (mean ± SD),[2]; [7],6.44 ± 0.60 mm
same,Thickness of ankle joint (mean ± SD),[2]; [8],6.07 ± 0.41 mm
same,Thickness of ankle joint (mean ± SD),[2]; [9],6.27 ± 0.36 mm
same,Thickness of ankle joint (mean ± SD),[2]; [10],6.36 ± 0.64 mm
same,Thickness of ankle joint (mean ± SD),[2]; [11],6.20 ± 0.52 mm
same,Thickness of ankle joint (mean ± SD),[2]; [12],6.09 ± 0.45 mm
same,Thickness of ankle joint (mean ± SD),[2]; [13],6.74 ± 0.44 mm
same,Thickness of ankle joint (mean ± SD),[2]; [14],6.15 ± 0.37 mm
same,Mean value of hindfoot joint score,[3]; [6],4.5
same,Mean value of hindfoot joint score,[3]; [7],5.6^##
same,Mean value of hindfoot joint score,[3]; [8],4.8
same,Mean value of hindfoot joint score,[3]; [9],4.6
same,Mean value of hindfoot joint score,[3]; [10],5.1**
same,Mean value of hindfoot joint score,[3]; [11],5.9^##
same,Mean value of hindfoot joint score,[3]; [12],4.4
same,Mean value of hindfoot joint score,[3]; [13],5.7^##
same,Mean value of hindfoot joint score,[3]; [14],4.4*
same,TNF-α level in serum (mean ± SD),TNF-α [4]; [7],46.48 ± 101.05 pg/mL
same,TNF-α level in serum (mean ± SD),TNF-α [4]; [8],12.35 ± 9.72 pg/mL
same,TNF-α level in serum (mean ± SD),TNF-α [4]; [10],66.71 ± 121.06 pg/mL
same,TNF-α level in serum (mean ± SD),TNF-α [4]; [11],123.73 ± 157.16 pg/mL
same,TNF-α level in serum (mean ± SD),TNF-α [4]; [13],10.02 ± 14.59 pg/mL
same,TNF-α level in serum (mean ± SD),TNF-α [4]; [14],23.44 ± 27.21 pg/mL
same,TNF-α level in ankle (mean ± SD),"TNF-α [5]; left ankle joint, high dose group",12.76 ± 3.34 pg/mL
same,TNF-α level in ankle (mean ± SD),"TNF-α [5]; left ankle joint, low dose group",13.56 ± 5.28 pg/mL
same,TNF-α level in ankle (mean ± SD),"TNF-α [5]; left ankle joint, medium dose group",14.25 ± 5.00 pg/mL
same,TNF-α level in ankle (mean ± SD),"TNF-α [5]; right ankle joint, high dose group",13.68 ± 4.44 pg/mL
same,TNF-α level in ankle (mean ± SD),"TNF-α [5]; right ankle joint, low dose group",12.71 ± 4.00 pg/mL
same,TNF-α level in ankle (mean ± SD),"TNF-α [5]; right ankle joint, medium dose group",11.73 ± 4.20 pg/mL
